The values below come from US11103509B2 (University of Kentucky Research Foundation, priority 2018, dated 2021).

The target in one test is T1, human mPGES-1 (Homo sapiens, UniProt O14684).
T1 construct: made in house
T1 sequence (O14684 1-152): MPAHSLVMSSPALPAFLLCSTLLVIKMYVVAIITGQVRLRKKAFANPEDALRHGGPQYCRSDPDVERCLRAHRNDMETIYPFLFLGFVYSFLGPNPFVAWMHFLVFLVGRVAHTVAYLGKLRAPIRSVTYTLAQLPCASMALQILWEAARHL
As to the kind of experiment: in vitro inhibitory activity against human mPGES-1 (PGE2 enzyme immunoassay). The conditions noted are these: for inhibition at 10 µM: read-out: Inhibition (%) at 10 μM. Format: biochemical. On the procedure: The above computational predictions were followed by in vitro activity assays for their actual inhibitory activity against human mPGES-1 using an ELISA assay previously-described.^16-17, 19 Specifically, a total of 18 FDA-approved drugs were assayed for their inhibitory activity against human mPGES-1.
The protocol for the protein preparation and in vitro activity assays were the same as described previously.^69-72 The enzyme activity assays were performed on ice in 1.5 ml microfuge tubes by using the expressed human mPGES-1. The reaction mixture contained: 0.2 M Na2HPO4/NaH2PO4, pH 7.2, 10 μL; 0.1 M GSH, 2.5 μL; diluted microsomal enzyme (80 μg/mL), 1 μL; PGH2 (0.31 mM in DMF), 5 μL; 1 μL inhibitor; and H2O in a final reaction volume of 100 μL. PGH2 was stored in dry ice and used to initiate the reaction. Compounds were incubated with the enzyme for 15 min at room temperature before the addition of cold PGH2 (1 μM final) to initiate the enzyme reaction. After 30 s, 10 μL of SnCl2 (40 mg/mL) in ethanol was added to stop the reaction. The non-enzymatic conversion of PGH2 to PGE2 was performed in the same buffer devoid of enzyme. The reaction mixture was placed on ice until PGE2 production was determined by the PGE2 enzyme immunoassay as described earlier. IC50 values of the inhibitors were calculated by using the GraphPad Prism 6.0.

For test [1], the system named is pain in cancer patients. The conditions noted are these: cited from earlier work.
Test [2] has as its system pain in cancer patients. The test can be described thus: clinical data mining: pain complaints in afatinib Phase III clinical trial NCT00656136. It is filed as in vivo, human. How it is done: To address this question, data from phase III clinical trial (NCT00656136) was also analyzed for drug afatinib, another EGFR and HER2 dual inhibitor approved by the FDA in 2013.

[3] abbreviates: 10 μM, single-concentration screening.
Where [4] appears, read: NCT00656136, with drug total 390.
[5] abbreviates: NCT00656136, may include multiple types of pain from each patient.

For orientation: IC50 means the point on the concentration scale where inhibition reaches its midpoint. In general, inhibition refers to the relative decrease from the control value, in per cent.

Molecules are shown by their SMILES. Where two headings read alike, the source gives them in different places.

Regarding `COc1cc(C)c(/C=C/C(C)=C/C=C/C(C)=C/C(=O)O)c(C)c1C` [Acitretin], it took 3.5 ± 1.6 µM to reach half-maximal inhibition against human mPGES-1 (IC50). Further, the inhibition at 10 µM on human mPGES-1 (setting [3]) was found to be 83%.
`CC(C)(C)C(=O)OCOP(=O)(COCCn1cnc2c(N)ncnc21)OCOC(=O)C(C)(C)C` [Adefovir Dipivoxil]: the inhibition at 10 µM on human mPGES-1 (setting [3]) amounted to 19%.
`COc1cc2nc(N(C)CCCNC(=O)C3CCCO3)nc(N)c2cc1OC` (centres unmarked) [Alfuzosin]: at human mPGES-1 (setting [3]), the inhibition at 10 µM is 22%.
Consider `CCCCC[C@H](O)/C=C/[C@H]1[C@H](O)CC(=O)[C@@H]1CCCCCCC(=O)O` [Alprostadil], for which the inhibition at 10 µM at human mPGES-1 (setting [3]) was determined as 11%.
On to `C[C@H]1[C@H](NC(=O)/C(=N\OC(C)(C)C(=O)O)c2csc(N)n2)C(=O)N1S(=O)(=O)O` [Aztreonam], for which half-maximal inhibition against human mPGES-1 (IC50) required 11.4 ± 1.1 µM. Further, the inhibition at 10 µM on human mPGES-1 (setting [3]) was 53%.
As for `C=C1/C(=C\C=C2/CCC[C@]3(C)[C@@H]([C@H](C)/C=C/[C@@H](O)C4CC4)CC[C@@H]23)C[C@@H](O)C[C@@H]1O` [Calcipotriene], on human mPGES-1, the IC50 turned out to be 3 ± 1.1 µM. Further, on human mPGES-1 (setting [3]), the inhibition at 10 µM amounted to 68%.
Molecule `CO[C@@]1(NC(=O)C2SC(=C(C(N)=O)C(=O)[O-])S2)C(=O)N2C(C(=O)[O-])=C(CSc3nnnn3C)CS[C@@H]21.[Na+].[Na+]` (some centres unmarked) [Cefotetan Disodium] showed a 50% inhibitory concentration (IC50) on human mPGES-1 of 13.5 ± 4 µM. Further, the “Inhibition (%) at 10 μM” value at human mPGES-1 (setting [3]) is 44%.
On human mPGES-1, `COCC1=C(C(=O)OC(C)OC(=O)OC(C)C)N2C(=O)[C@@H](NC(=O)/C(=N\OC)c3csc(N)n3)[C@H]2SC1` (some centres unmarked) [Cefpodoxime Proxetil] gave a half-inhibitory concentration (IC50) of 29.7 ± 6.3 µM. The inhibition at 10 µM on human mPGES-1 (setting [3]) came out at 47%.
The matching figures for `CO/N=C(\C(=O)N[C@@H]1C(=O)N2C(C(=O)O)=C(CSc3nc(=O)c(=O)[nH]n3C)CS[C@H]12)c1csc(N)n1` [Ceftriaxone]: 7.2 ± 2.4 µM and 57%.
Regarding `CCCCC[C@H](O)/C=C/[C@H]1[C@H](O)CC(=O)[C@@H]1C/C=C\CCCC(=O)O` [Dinoprostone], the inhibition at 10 µM at human mPGES-1 (setting [3]) was 4%.
On to `OCCN(CCO)c1nc(N2CCCCC2)c2nc(N(CCO)CCO)nc(N3CCCCC3)c2n1` [Dipyridamole], for which the inhibition at 10 µM on human mPGES-1 (setting [3]) stood at 36%.
Still for that read-out and setting: with `COc1cc2nc(N3CCN(C(=O)C4COc5ccccc5O4)CC3)nc(N)c2cc1OC` (centres unmarked) [Doxazosin] the figure was 21%.
As to `C[C@]12CC[C@@H]3c4ccc(OC(=O)N(CCCl)CCCl)cc4CC[C@H]3[C@@H]1CC[C@@H]2OP(=O)(O)O` [Estramustine Phosphate], the inhibition at 10 µM on human mPGES-1 was 36%.
Turning to `CS(=O)(=O)CCNCc1ccc(-c2ccc3ncnc(Nc4ccc(OCc5cccc(F)c5)c(Cl)c4)c3c2)o1` [Lapatinib Ditosylate], the inhibition at 10 µM at human mPGES-1 (setting [3]) came to 99%.
As for `CC1(C)S[C@@H]2[C@H](NC(=O)COc3ccccc3)C(=O)N2[C@H]1C(=O)[O-].[K+]` [Penicillin V Potassium], the “Inhibition (%) at 10 μM” value at human mPGES-1 (setting [3]) is recorded as 36%.
Consider `C[C@]12C=CC(=O)C=C1CC[C@@H]1[C@@H]2[C@@H](O)C[C@@]2(C)[C@H]1CC[C@]2(O)C(=O)CO` [Prednisolone], for which, on human mPGES-1 (setting [3]), the inhibition at 10 µM amounted to 44%.
Take `Cc1ccccc1C(=O)Nc1ccc(C(=O)N2CCCC(O)c3cc(Cl)ccc32)c(C)c1` (centres unmarked) [Tolvaptan]: the midpoint of inhibition against human mPGES-1, the IC50, lay at 10.2 ± 2.5 µM. Besides, on human mPGES-1 (setting [3]), the inhibition at 10 µM was 52%.
On to `CCOC(=O)[C@H](CCc1ccccc1)N[C@@H](C)C(=O)N1[C@H](C(=O)O)C[C@H]2CCCC[C@@H]21` [Trandolapril], for which the IC50 against human mPGES-1 was 9 ± 2.3 µM. Further, on human mPGES-1 (setting [3]), the inhibition at 10 µM turned out to be 54%.
Take `CN(C)C/C=C/C(=O)Nc1cc2c(Nc3ccc(F)c(Cl)c3)ncnc2cc1O[C@H]1CCOC1` [afatinib]: in the test on pain in cancer patients [1] (setting [4]), the “Back Pain, With drug pains” value is reported as 29; the “Headache, With drug pains” value is reported as 21; the “Pain In Extremity, With drug pains” value is 27; the “Pain-throat/pharynx/larynx, With drug pains” value is given as 27. Further, in the test on pain in cancer patients [1] (NCT00656136), the “# of patients complaining pain/# of patients given afatinib, Counts: Back Pain” value was 29/390; the “# of patients complaining pain/# of patients given afatinib, Counts: Headache” value is reported as 21/390; the “# of patients complaining pain/# of patients given afatinib, Counts: Pain - chest/thorax” value is 27/390; the “# of patients complaining pain/# of patients given afatinib, Counts: Pain in Extremity” value is 27/390. In the test on pain in cancer patients [1] (NCT00656136), the “patients complaining pain, Percentage(%): Back Pain” value was 7.43%; the “patients complaining pain, Percentage(%): Headache” value is recorded as 5.38%; the “patients complaining pain, Percentage(%): Pain - chest/thorax” value is recorded as 6.92%; the “patients complaining pain, Percentage(%): Pain in Extremity” value was 6.92%. In the test on pain in cancer patients [2] (NCT00656136, compared to placebo), the “analgesic effect (in words)” value was “no analgesic effects at all”. In addition, in the test on pain in cancer patients [2] (setting [5]), the “# of patients complaining pain/# of patients given afatinib, Counts: Total pain occurrence” value was 104/390 and the “patients complaining pain, Percentage(%): Total pain occurrence” value was found to be 26.67%.
